System: H3K9me3 occupancy in promoter regions
Assay: H3K9me3-ChIP sequencing of striatal tissue of YAC128 mice
Type: in vivo, mouse
Method: ChIP for H3K9me3 binding to DNA was performed using a CHIP assay kit (Santa Cruz, Dallas, TX) as described previously[21]^,[28]. Striatal tissues from WT, vehicle treated YAC128, and APQ-treated YAC128 mice were crossed-linked with 1% formaldehyde for 20 min at room temperature. Lysates were sonicated for 30 s six times using a Bioruptor (Diagenode Inc., Denville, NJ). After centrifugation, the supernatant was diluted in CHIP dilution buffer and incubated overnight at 4 °C with anti-H3K9me3 antibody. Immune complexes were recovered by the addition of 60 µl of salmon sperm DNA/protein A agarose-50% slurry and incubation at 4 °C for 2 h with rotation. Beads were pelleted and washed with low and high salt buffer followed by LiCl buffer (x3). Immune complexes were eluted by incubation with 500 µl of fresh elution buffer (1% SDS, 0.1 M NaHCO3) and 20 µl of 5 M NaCl. DNA was cleaned by the addition of 500 mM EDTA, 1 M Tris, and proteinase K at 66 °C for 4 h. The DNA solution was extracted with a phenol/chloroform/isoamyl alcohol mixture to remove protein contaminants, followed by precipitation with 100% ethanol. After precipitation, the pellet was washed with 70% ethanol and dissolved in 20 µl DW.
The Model-based Analysis of ChIP-Seq algorithm (MACS; v. 1.4.2) was used to identify regions of H3K9me3 enrichment with the default parameters. The peaks that pass a Poisson p values threshold of 0.1 were used for further analyses[28]^,[42]. In order to obtain reliable regions of enrichment, the regions detected in more than two samples were selected and aligned to define the consensus regions using DiffBind R package (v. 2.4.8)[43]. The reads in the consensus regions were counted and DESeq2 was applied to identify DMRs[44]. The DMRs were defined as p values of ≤.05 and only DMRs in promoter region (≤3 K from transcription start site) were selected.
Among the read peaks, a total of H3K9me3-enriched 71735 sites were commonly detected using MACS in WT, vehicle-treated YAC128, and APQ-treated YAC128 mice (using DiffBind R package). The reads were re-counted in the 71,735 sites (using DESeq2) and the H3K9me3-enriched sites in promoter region (≤3 K), with p values ≤.01 were selected. Then the H3K9me3-enriched sites with 1.5-fold higher in vehicle-treated YAC128 compared to WT and 1.5-fold lower in vehicle-treated YAC128 compared to APQ-treated YAC128 were finally selected.

C=CCOc1cccc2nc(N3CCCC3)ccc12 [APQ, 5-allyloxy-2-(pyrrolidin-1-yl)quinoline]
number of targets with 1.5-fold decrease of H3K9me3 occupancy (APQ-treated vs vehicle-treated YAC128 mice): 7060
H3K9me3 occupancy in the promoter region (–1 k to –3 kb) (APQ-treated vs vehicle-treated YAC128 mice, pie graph analysis): reduced
Fold(YACEi/YAC) H3K9me3 ChIP occupancy (Gripap1, Promoter (1-2kb), chrX_7787762_7788457, APQ-treated YAC vs YAC mice striatum): -2.38
Fold(YACEi/YAC) (H3K9me3 ChIP peak chr1_71652484_71652752, Apol7d, Promoter (<=1kb)): -3.31
Fold(YACEi/YAC) (H3K9me3 ChIP peak chr1_131908530_131908816, Nucks1, Promoter (1-2kb)): -4.01
Fold(YACEi/YAC) (H3K9me3 ChIP peak chr1_153487828_153488249, Dhx9, Promoter (<=1kb)): -2.43
Fold(YACEi/YAC) (H3K9me3 ChIP peak chr2_5015774_5016013, Mcm10, Promoter (2-3kb)): -3.52
Fold(YACEi/YAC) (H3K9me3 ChIP peak chr3_35666243_35666969, Gm6639, Promoter (<=1kb)): -3.37
Fold(YACEi/YAC) (H3K9me3 ChIP peak chr3_38487666_38488045, Ankrd50, Promoter (2-3kb)): -2.49
Fold(YACEi/YAC) (H3K9me3 ChIP peak chr3_81977204_81977533, Tdo2, Promoter (1-2kb)): -3.71
Fold(YACEi/YAC) (H3K9me3 ChIP peak chr3_92487863_92488097, Sprr1a, Promoter (1-2kb)): -3.63
Fold(YACEi/YAC) (H3K9me3 ChIP peak chr3_101112649_101113010, Ptgfrn, Promoter (2-3kb)): -3.89
Fold(YACEi/YAC) (H3K9me3 ChIP peak chr4_3653408_3653656, 2210414B05Rik, Promoter (2-3kb)): -3.07
Fold(YACEi/YAC) (H3K9me3 ChIP peak chr4_55418287_55418885, Gm12505, Promoter (<=1kb)): -2.83
Fold(YACEi/YAC) (H3K9me3 ChIP peak chr4_73631010_73633171, Gm11236, Promoter (2-3kb)): -3.46
Fold(YACEi/YAC) (H3K9me3 ChIP peak chr4_96141001_96141325, Cyp2j12, Promoter (<=1kb)): -3.49
Fold(YACEi/YAC) (H3K9me3 ChIP peak chr5_147954155_147954429, Mtus2, Promoter (2-3kb)): -3.24
Fold(YACEi/YAC) (H3K9me3 ChIP peak chr6_8194240_8194734, Col28a1, Promoter (1-2kb)): -2.03
Fold(YACEi/YAC) (H3K9me3 ChIP peak chr6_40902902_40903167, Prss58, Promoter (2-3kb)): -3.27
Fold(YACEi/YAC) (H3K9me3 ChIP peak chr6_52209895_52210445, Hoxa6, Promoter (1-2kb)): -2.02
Fold(YACEi/YAC) (H3K9me3 ChIP peak chr6_57158878_57159171, Vmn1r12, Promoter (<=1kb)): -3.18
Fold(YACEi/YAC) (H3K9me3 ChIP peak chr6_82941890_82942092, Sema4f, Promoter (2-3kb)): -3.56
Fold(YACEi/YAC) (H3K9me3 ChIP peak chr6_88462374_88462646, Ruvbl1, Promoter (2-3kb)): -3.04
Fold(YACEi/YAC) (H3K9me3 ChIP peak chr6_116583898_116584203, Olfr215, Promoter (<=1kb)): -2.33
Fold(YACEi/YAC) (H3K9me3 ChIP peak chr7_20869153_20870151, Vmn1r116, Promoter (2-3kb)): -3.02
Fold(YACEi/YAC) (H3K9me3 ChIP peak chr7_28539372_28539811, Sycn, Promoter (1-2kb)): -2.21
Fold(YACEi/YAC) (H3K9me3 ChIP peak chr7_30914737_30915034, Mag, Promoter (<=1kb)): -2.46
Fold(YACEi/YAC) (H3K9me3 ChIP peak chr7_106081077_106081480, Gm8979, Promoter (1-2kb)): -3.34
Fold(YACEi/YAC) (H3K9me3 ChIP peak chr7_108053741_108053948, Olfr479, Promoter (1-2kb)): -2.28
Fold(YACEi/YAC) (H3K9me3 ChIP peak chr7_140154755_140155139, Sprn, Promoter (<=1kb)): -2.42
Fold(YACEi/YAC) (H3K9me3 ChIP peak chr8_67493810_67494076, Nat2, Promoter (<=1kb)): -2.63
Fold(YACEi/YAC) (H3K9me3 ChIP peak chr9_39238856_39239153, Olfr1537, Promoter (<=1kb)): -2.72
Fold(YACEi/YAC) (H3K9me3 ChIP peak chr10_75351156_75351507, Gm5779, Promoter (<=1kb)): -3.41
Fold(YACEi/YAC) (H3K9me3 ChIP peak chr10_78963256_78963630, Olfr1353, Promoter (<=1kb)): -2.79
Fold(YACEi/YAC) (H3K9me3 ChIP peak chr10_85919134_85919418, Prdm4, Promoter (1-2kb)): -2.28
Fold(YACEi/YAC) (H3K9me3 ChIP peak chr10_130212472_130212863, Olfr827, Promoter (1-2kb)): -3.69
Fold(YACEi/YAC) (H3K9me3 ChIP peak chr11_6231887_6232152, Npc1l1, Promoter (1-2kb)): -3.31
Fold(YACEi/YAC) (H3K9me3 ChIP peak chr11_70351943_70352224, Alox15, Promoter (<=1kb)): -2.33
Fold(YACEi/YAC) (H3K9me3 ChIP peak chr14_7570803_7571731, Gm3558, Promoter (2-3kb)): -3.02
Fold(YACEi/YAC) (H3K9me3 ChIP peak chr14_50785599_50785931, Ttc5, Promoter (<=1kb)): -3.3
Fold(YACEi/YAC) (H3K9me3 ChIP peak chr14_51147689_51148262, Rnase1, Promoter (<=1kb)): -2.5
Fold(YACEi/YAC) (H3K9me3 ChIP peak chr14_67860151_67860425, Mir6539, Promoter (<=1kb)): -2.31
Fold(YACEi/YAC) (H3K9me3 ChIP peak chr14_74972279_74972456, Gm4278, Promoter (2-3kb)): -3.57
Fold(YACEi/YAC) (H3K9me3 ChIP peak chr16_17917614_17917958, Gsc2, Promoter (2-3kb)): -3.59
Fold(YACEi/YAC) (H3K9me3 ChIP peak chr17_18913933_18914613, Vmn2r97, Promoter (<=1kb)): -3.35
Fold(YACEi/YAC) (H3K9me3 ChIP peak chr17_33553505_33553673, Myo1f, Promoter (2-3kb)): -3.41
Fold(YACEi/YAC) (H3K9me3 ChIP peak chr17_37114518_37114958, Olfr92, Promoter (2-3kb)): -2.4
Fold(YACEi/YAC) (H3K9me3 ChIP peak chr17_37485182_37485483, H2-M2, Promoter (1-2kb)): -3.71
Fold(YACEi/YAC) (H3K9me3 ChIP peak chr17_47927455_47927829, Foxp4, Promoter (2-3kb)): -2.83
Fold(YACEi/YAC) (H3K9me3 ChIP peak chr19_24902268_24902717, Foxd4, Promoter (<=1kb)): -2.16
Fold(YACEi/YAC) (H3K9me3 ChIP peak chrX_5469564_5470151, Mycs, Promoter (<=1kb)): -2.41
Fold(YACEi/YAC) (H3K9me3 ChIP peak chrX_6399655_6400248, Shroom4, Promoter (<=1kb)): -2.29
Fold(YACEi/YAC) (H3K9me3 ChIP peak chrX_7571434_7571820, Flicr, Promoter (1-2kb)): -4.01
Fold(YACEi/YAC) (H3K9me3 ChIP peak chrX_10118097_10118554, Srpx, Promoter (<=1kb)): -2.46
Fold(YACEi/YAC) (H3K9me3 ChIP peak chrX_10714202_10714657, Mid1ip1, Promoter (2-3kb)): -2.68
